Data taken from article PMC4301955 (ChemMedChem, 2012).
“And” between values parts separate entries of the source, which are not always exact repeats. Identical values can stand only once.

Experiments:
[1] = target: purified full-length human ERβ (Homo sapiens, UniProt Q92731); details: IC50 estradiol/IC50 compound ×100, estradiol = 100%; ± range or SD, n = 2–3; 10 nM [3H]estradiol, 18–24 h at 0 °C
[2] = tested on: ERα+ MCF-7 cells; details: for Agonist mode MCF-7 (% E2): ERα+ MCF-7 cells with ERE reporter, average efficacy (mean ± s.e.m.) as percentage of 10^−5 M 17β-estradiol
[3] = target: T1, purified full-length human ERα (Homo sapiens, UniProt P03372); details: for Relative binding affinity (RBA) ERα: IC50 estradiol/IC50 compound ×100, estradiol = 100%, ± range or SD, n = 2–3, 10 nM [3H]estradiol, 18–24 h at 0 °C
T1 sequence (P03372 1-595): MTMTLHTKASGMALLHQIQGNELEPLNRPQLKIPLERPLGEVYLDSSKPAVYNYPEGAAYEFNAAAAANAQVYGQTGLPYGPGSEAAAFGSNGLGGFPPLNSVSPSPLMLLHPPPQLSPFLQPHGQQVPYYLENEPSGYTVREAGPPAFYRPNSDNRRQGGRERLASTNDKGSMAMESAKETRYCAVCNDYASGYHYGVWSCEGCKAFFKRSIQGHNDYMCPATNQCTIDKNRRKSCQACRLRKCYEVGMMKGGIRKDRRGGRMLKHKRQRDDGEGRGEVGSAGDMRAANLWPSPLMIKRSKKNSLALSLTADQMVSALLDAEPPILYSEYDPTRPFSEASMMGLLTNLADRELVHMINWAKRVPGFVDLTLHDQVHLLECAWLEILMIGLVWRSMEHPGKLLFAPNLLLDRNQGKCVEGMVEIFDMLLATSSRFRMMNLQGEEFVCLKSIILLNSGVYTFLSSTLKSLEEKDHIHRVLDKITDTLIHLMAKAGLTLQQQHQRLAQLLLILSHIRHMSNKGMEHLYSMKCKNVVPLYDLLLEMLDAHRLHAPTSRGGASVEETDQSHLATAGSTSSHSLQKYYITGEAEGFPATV

[4] = target: T2, full-length human ERβ (Homo sapiens, UniProt Q92731); assay type: cell-based; details: HepG2 cells; average efficacy (mean ± s.e.m.) as percentage of 10^−5 M 17β-estradiol
T2 sequence (Q92731 whole entry): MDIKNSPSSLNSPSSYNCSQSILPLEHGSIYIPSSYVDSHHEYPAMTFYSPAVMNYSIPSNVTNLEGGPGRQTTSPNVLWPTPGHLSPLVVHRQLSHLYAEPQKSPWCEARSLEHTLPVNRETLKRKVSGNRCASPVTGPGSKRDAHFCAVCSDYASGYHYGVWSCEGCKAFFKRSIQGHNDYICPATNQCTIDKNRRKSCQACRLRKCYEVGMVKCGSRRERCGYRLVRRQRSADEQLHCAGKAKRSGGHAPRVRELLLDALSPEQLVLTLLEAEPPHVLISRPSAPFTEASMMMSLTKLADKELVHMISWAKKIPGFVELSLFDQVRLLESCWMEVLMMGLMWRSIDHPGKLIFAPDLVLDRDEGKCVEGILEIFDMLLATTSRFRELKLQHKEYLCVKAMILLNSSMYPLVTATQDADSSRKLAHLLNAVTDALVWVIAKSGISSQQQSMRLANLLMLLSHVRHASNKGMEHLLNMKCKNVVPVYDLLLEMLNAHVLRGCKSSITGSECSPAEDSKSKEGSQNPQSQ

[5] = target: T3, full-length human ERα (Homo sapiens, UniProt P03372); assay type: cell-based; details: for Agonist mode ERα (% E2): HepG2 cells, average efficacy (mean ± s.e.m.) as percentage of 10^−5 M 17β-estradiol
T3 sequence (P03372 1-595): T1 sequence (P03372 1-595)

[6] = target: T2, full-length human ERβ; assay type: cell-based

purified full-length human ERβ, sequence (Q92731 whole entry): as above

Structure (SMILES) | Relative binding affinity (RBA) ERβ [1] | Agonist mode MCF-7 (% E2) [2] [% E2] | Relative binding affinity (RBA) ERα [3] | Agonist mode ERβ (% E2) [4] [% E2] | EC50 [5] [µM] | Agonist mode ERα (% E2) [5] [% E2] | IC50 [6] [µM] | Antagonist mode ERβ (% E2) [6] [% E2] | Activity profile in MCF-7 cells (in words) ([2]; 3xERE-luciferase, ERα-positive MCF-7 cells) | α/β ratio ([3]; ratio of the RBA for ERα to the RBA for ERβ)
O=S(=O)(Oc1ccccc1Cl)C1CC2OC1C(c1ccc(O)cc1)=C2c1ccc(O)cc1 (centres unmarked) [Compound 2b, 5,6-Bis-(4-hydroxyphenyl)-7-oxabicyclo[2.2.1]hept-5-ene-2-sulfonic Acid 2-Chlorophenyl Ester] | 1.76% and 1.76 ±0.13% | −7 ± 2 | 19.0% and 19.00 ±4.6% | 1 ± 1 | > 10 | 29 ± 5 | > 10 | – | – | –
CC/C(=C(\c1ccc(O)cc1)c1ccc(OCCN(C)C)cc1)c1ccccc1 [Compound 4-OHT, 4-hydroxytamoxifen, reference compound] | – | −11 ± 1 | – | −1 ± 1 | – | – | – | −20 ± 2 | – | –
O=S(=O)(Oc1ccccc1)[C@H]1C[C@H]2O[C@@H]1C(c1ccc(O)cc1)=C2c1ccc(O)cc1 [Compound 1] | – | 21 ± 4 | – | – | – | – | – | – | limited agonist activity | –
O=S(=O)(Oc1cccc2ccccc12)C1CC2OC1C(c1ccc(O)cc1)=C2c1ccc(O)cc1 (centres unmarked) [Compound 2m] | 0.478 ±0.12% | −4 ± 1 | 5.03 ±1.5% | 1 ± 2 | – | 29 ± 1 | – | – | – | 10.52
C[C@]12CC[C@@H]3c4ccc(O)cc4C[C@@H](CCCCCCCCC[S+]([O-])CCCC(F)(F)C(F)(F)F)[C@H]3[C@@H]1CC[C@@H]2O (some centres unmarked) [Faslodex, reference compound] | – | −4 ± 4 | – | – | – | 1 ± 1 | – | – | – | –
